Where two headings read alike, the source gives them in different places.
What was measured:
HIV-1 protease = HIV-1 protease (Human immunodeficiency virus type 1 group M subtype B, UniProt P04585); experiment: Fluorogenic assay for screening inhibitors of HIV protease; type: biochemical; conditions: read-out: Percent Inhibition
Experimental: Fluorogenic Assay for Screening Inhibitors of HIV Protease
The inhibitory potency of the compounds of the invention can be determined by the following method.
A compound of the invention is dissolved in DMSO and a small aliquot further diluted with DMSO to 100 times the final concentration desired for testing. The reaction is carried out in a 6 X 50 mm tube in a total volume of 300 microliters. The final concentrations of the components in the reaction buffer are: 125 mM sodium acetate, 1 M sodium chloride, 5 mM dithiothreitol, 0.5 mg/ml bovine serum albumin, 1.3 µM fluorogenic substrate, 2% (v/v) dimethylsulfoxide, pH 4.5. After addition of inhibitor, the reaction mixture is placed in the fluorometer cell holder and incubated at 30°C for several minutes. The reaction is initiated by the addition of a small aliquot of cold HIV protease. The fluorescence intensity (excitation 340 nm, emmision 490 nM) is recorded as a function of time. The reaction rate is determined for the first six to eight minutes. The observed rate is directly proportional to the moles of substrate cleaved per unit time. The percent inhibition is 100 X (1 - (rate in presence of inhibitor)/(rate in absence of inhibitor)).

HIV-13B = experiment: Antiviral activity: inhibition of the cytopathic effect of HIV in MT4 cells (procedure of Pauwels et al.); type: cell-based; conditions: Human immunodeficiency virus 1, MT4
Excerpt: (§1) The anti-HIV activity of the compounds of the invention can be determined in MT4 cells according to the procedure of Pauwels et. al. (J. Virol. Methods 1988, 20, 309).

[1] = Cell viability (LC50) in MT4 cells in the antiviral test; type: cell-based; conditions: human, concentration at which 50% of the cells remain viable
Excerpt: as §1

[2] = Inhibitor Concentration 0.5 nanomolar

Structure (SMILES) | IC50 (HIV-13B) [nM] | further results
CC(C)[C@H](NC(=O)N(C)Cc1ccccn1)C(=O)N[C@@H](Cc1ccccc1)[C@@H](O)C[C@H](Cc1ccccc1)NC(=O)OCc1cccnc1 [Example 37C, (2S,3S,5S)-2-(N-(N-((N-Methyl-N-((2-pyridinyl)-methyl)amino)carbonyl)valinyl)amino)-5-(N-((3-pyridinyl)methoxycarbonyl)amino)-1,6-diphenyl-3-hydroxyhexane] | 840 to 1440 | inhibition at 0.001 µM (HIV-1 protease): 61%
CC(C)[C@H](NC(=O)N(C)Cc1ccccn1)C(=O)N[C@@H](Cc1ccccc1)C[C@H](O)[C@H](Cc1ccccc1)NC(=O)OCc1cccnc1 [Example 38, (2S,3S,5S)-5-(N-(N-((N-Methyl-N-((2-pyridinyl)methyl)amino)carbonyl)valinyl)amino)-2-(N-((3-pyridinyl)methoxycarbonyl)amino)-1,6-diphenyl-3-hydroxyhexane] | 550 to 610 | 
CC(C)[C@H](NC(=O)OCc1ccccn1)C(=O)N[C@@H](Cc1ccccc1)[C@@H](O)C[C@H](Cc1ccccc1)NC(=O)OCc1cccnc1 [Example 39, (2S,3S,5S)-2-(N-(N-((2-Pyridinyl)methoxycarbonyl)valinyl)amino)-5-(N-((3-pyridinyl)methoxycarbonyl)amino)-1,6-diphenyl-3-hydroxyhexane] | 130 to 250 | 
CC(C)[C@H](NC(=O)OCc1ccccn1)C(=O)N[C@@H](Cc1ccccc1)C[C@H](O)[C@H](Cc1ccccc1)NC(=O)OCc1cccnc1 [Example 40, (2S,3S,5S)-5-(N-(N-((2-Pyridinyl)methoxycarbonyl)valinyl)amino)-2-(N-((3-pyridinyl)methoxycarbonyl)amino)-1,6-diphenyl-3-hydroxyhexane] | 230 to 550 | inhibition at 0.0005 µM (HIV-1 protease): 61%; CC50 [1]: 64 µM
CC[C@H](C)[C@H](NC(=O)N(C)Cc1ccccn1)C(=O)N[C@@H](Cc1ccccc1)C[C@H](O)[C@H](Cc1ccccc1)NC(=O)OCc1cccnc1 [Example 171] | 380 to 550 | inhibition at 0.0005 µM (HIV-1 protease; [2]): 62%
O=C(N[C@@H](Cc1ccccc1)C[C@H](O)[C@H](Cc1ccccc1)NC(=O)OCc1cccnc1)OCc1cccnc1 [Example 174] | 140 to 230 | inhibition at 0.0005 µM (HIV-1 protease; [2]): 51%
Cc1cccc(COC(=O)N[C@H](C(=O)N[C@@H](Cc2ccccc2)C[C@H](O)[C@H](Cc2ccccc2)NC(=O)OCc2cccnc2)C(C)C)n1 [Example 290, (2S,3S,5S)-2-(N-[(pyridin-3-yl)methoxycarbonyl]amino)-5-(N-[(6-methylpyridin-2-yl)methoxycarbonyl-valyl]amino)-1,6-diphenyl-3-hydroxyhexane] | 26 to 75 | 
Cc1cccc(CN(C)C(=O)N[C@H](C(=O)N[C@@H](Cc2ccccc2)[C@@H](O)C[C@H](Cc2ccccc2)NC(=O)OCc2cccnc2)C(C)C)n1 [Example 297, (2S,3S-5S)-2-(N-(N-((N-Methyl-N-((6-methyl-2-pyridinyl)methyl)amino)carbonyl)valinyl)amino)-5-(N-((3-pyridinyl)-methoxycarbonyl)amino)-1,6-diphenyl-3-hydroxyhexane] | 310 to 350 | 
Cc1cccc(CN(C)C(=O)N[C@H](C(=O)N[C@@H](Cc2ccccc2)C[C@H](O)[C@H](Cc2ccccc2)NC(=O)OCc2cccnc2)C(C)C)n1 [Example 298] | 220 to 290 | 
Cc1cccc(COC(=O)N[C@H](C(=O)N[C@@H](Cc2ccccc2)[C@@H](O)C(F)(F)[C@H](Cc2ccccc2)NC(=O)[C@@H](NC(=O)OCc2cccc(C)n2)C(C)C)C(C)C)n1 [Example 305] | 5 to 17 | inhibition at 0.0005 µM (HIV-1 protease; [2]): 91%
Cc1cccc(COC(=O)N[C@H](C(=O)N[C@@H](Cc2ccccc2)C(=O)C(F)(F)[C@H](Cc2ccccc2)NC(=O)[C@@H](NC(=O)OCc2cccc(C)n2)C(C)C)C(C)C)n1 [Example 306] | 7 to 19 | inhibition at 0.0005 µM (HIV-1 protease; [2]): 88%
Cc1cnc(COC(=O)N[C@H](C(=O)N[C@@H](Cc2ccccc2)[C@@H](O)C[C@H](Cc2ccccc2)NC(=O)OCc2cccnc2)C(C)C)cn1 [Example 307] | 160 to 260 | 
Cc1cnc(COC(=O)N[C@H](C(=O)N[C@@H](Cc2ccccc2)C[C@H](O)[C@H](Cc2ccccc2)NC(=O)OCc2cccnc2)C(C)C)cn1 [Example 308] | 77 to 124 | 
COc1ccc(COC(=O)N[C@H](C(=O)N[C@@H](Cc2ccccc2)C[C@H](O)[C@H](Cc2ccccc2)NC(=O)OCc2cccnc2)C(C)C)cn1 [Example 310] | 13 to 25 | 
COc1ccc(CN(C)C(=O)N[C@H](C(=O)N[C@@H](Cc2ccccc2)[C@@H](O)C[C@H](Cc2ccccc2)NC(=O)OCc2cccnc2)C(C)C)cn1 [Example 311, (2S,3S,5S)-2-(N-(N-((N-Methyl-N-((6-methoxy-3-pyridinyl)methyl)amino)carbonyl)valinyl)amino)-5-(N-((3-pyridinyl)methoxycarbonyl)amino)-1,6-diphenyl-3-hydroxyhexane] | 58 to 67 | 
COc1ccc(CN(C)C(=O)N[C@H](C(=O)N[C@@H](Cc2ccccc2)C[C@H](O)[C@H](Cc2ccccc2)NC(=O)OCc2cccnc2)C(C)C)cn1 [Example 312] | 58 to 77 | 
Cc1cncc(CN(C)C(=O)N[C@H](C(=O)N[C@@H](Cc2ccccc2)[C@@H](O)C[C@H](Cc2ccccc2)NC(=O)OCc2cccnc2)C(C)C)c1 [Example 313, (2S,3S,5S)-2-(N-(N-((N-Methyl-N-((5-methyl-3-pyridinyl)methyl)amino)carbonyl)valinyl)amino)-5-(N-((3-pyridinyl)methoxycarbonyl)amino)-1,6-diphenyl-3-hydroxyhexane] | 460 to 500 | 
Cc1cncc(CN(C)C(=O)N[C@H](C(=O)N[C@@H](Cc2ccccc2)C[C@H](O)[C@H](Cc2ccccc2)NC(=O)OCc2cccnc2)C(C)C)c1 [Example 314] | 98 to 144 | 
COc1ccc(COC(=O)N[C@H](C(=O)N[C@@H](Cc2ccccc2)C[C@H](O)[C@H](Cc2ccccc2)NC(=O)[C@@H](NC(=O)OCc2ccc(OC)nc2)C(C)C)C(C)C)cn1 [Example 315] | 3 to 5 | inhibition at 0.0005 µM (HIV-1 protease): […]
CC(C)[C@H](NC(=O)OCc1ccccn1)C(=O)N[C@@H](Cc1ccccc1)[C@@H](O)C[C@H](Cc1ccccc1)NC(=O)OCc1cncnc1 [Example 319, (2S,3S,5S)-2-(N-(N-((2-Pyridinyl)methoxycarbonyl)valinyl)amino)-5-(N-((5-pyrimidinyl)methoxycarbonyl)amino)-1,6-diphenyl-3-hydroxyhexane] | 210 to 290 | 
CC(C)[C@H](NC(=O)N(C)Cc1ccccn1)C(=O)N[C@@H](Cc1ccccc1)C[C@H](O)[C@H](Cc1ccccc1)NC(=O)OCc1cncnc1 [Example 320, (2S,3S,5S)-5-(N-(N-((N-Methyl-N-((2-pyridinyl)methyl)amino)carbonyl)valinyl)amino)-2-(N-((5-pyrimidinyl)methoxycarbonyl)amino)-1,6-diphenyl-3-hydroxyhexane] | 400 to 500 | 
CC(C)[C@H](NC(=O)OCc1ccccn1)C(=O)N[C@@H](Cc1ccccc1)C[C@H](O)[C@H](Cc1ccccc1)NC(=O)OCc1cncnc1 [Example 321, (2S,3S,5S)-5-(N-(N-((2-Pyridinyl)methoxycarbonyl)valinyl)amino)-2-(N-((5-pyrimidinyl)methoxycarbonyl)amino)-1,6-diphenyl-3-hydroxyhexane] | 140 to 190 | inhibition at 0.0005 µM (HIV-1 protease): 64%
Cc1cccc(COC(=O)N[C@H](C(=O)N[C@@H](Cc2ccccc2)[C@@H](O)C[C@H](Cc2ccccc2)NC(=O)OCc2ccoc2)C(C)C)n1 [Example 322B, (2S,3S,5S)-2-(N-(N-(2-(6-Methylpyridinyl)methoxycarbonyl)valinyl)amino)-5-(N-((3-furyl)methoxycarbonyl)amino)-1,6-diphenyl-3-hydroxyhexane] | 86 to 94 | 
CC(C)[C@H](NC(=O)OCc1ccc2ccccc2n1)C(=O)N[C@@H](Cc1ccccc1)[C@@H](O)C[C@H](Cc1ccccc1)NC(=O)OCc1cccnc1 [Example 326, (2S,3S,5S)-2-(N-(N-((2-Ouinolinyl)methoxycarbonyl)valinyl)amino)-5-(N-((3-pyridinyl)methoxycarbonyl)amino)-1,6-diphenyl-3-hydroxyhexane] | 53 to 86 | inhibition at 0.0005 µM (HIV-1 protease): 66%; CC50 [1]: 27 µM
CC(C)[C@H](NC(=O)OCc1ccc2ccccc2n1)C(=O)N[C@@H](Cc1ccccc1)C[C@H](O)[C@H](Cc1ccccc1)NC(=O)OCc1cccnc1 [Example 327, (2S,3S,5S)-5-(N-(N-((2-Ouinolinyl)methoxycarbonyl)valinyl)amino)-2-(N-((3-pyridinyl)methoxycarbonyl)amino)-1,6-diphenyl-3-hydroxyhexane] | 34 to 64 | inhibition at 0.0005 µM (HIV-1 protease): 69%; CC50 [1]: 84 µM
O=C(N[C@@H](Cc1ccccc1)C[C@H](O)[C@H](Cc1ccccc1)NC(=O)OCc1ccno1)OCc1ccno1 [Example 334B, (2S,3S,5S)-2,5-Bis-(N-(isoxazol-5-ylmethoxycarbonyl)amino)-1,6-diphenyl-3-hydroxyhexane] | 740 to 1600 | inhibition at 0.001 µM (HIV-1 protease): 56%; CC50 [1]: 91 µM

Reference: patent EP0997459A1, “Intermediates for preparing retroviral protease inhibiting compounds” (priority 1990, dated 1992)
